Results as given in publication PMC5791972 (PLoS ONE, 2018).
pIC50: −log10 of the molar value. Like-named read-outs stand apart in the source and are kept apart here.

Assays:
[1] = biological target: T1, Nav1.2 (Homo sapiens, UniProt Q99250); experiment: Ion channel selectivity patch clamp; type: cell-based
T1 construct: The cDNAs for various full-length ion channels were subcloned into pcDNA5/TO; expressed in transfected cells

[2] = biological target: T2, δ2 (DOP) (h) (Homo sapiens, UniProt P41143); type: binding; conditions: 1.0E-06 M
T2 construct: host or cells: CHO cells

[3] = biological target: T3, acetylcholinesterase (h) (Homo sapiens, UniProt P22303); experiment: enzyme assay; type: biochemical; conditions: 1.0E-06 M
T3 construct: host or cells: HEK-293 cells

[4] = biological target: T4, 5-HT2A (h) (Homo sapiens, UniProt P28223); type: binding; conditions: 1.0E-06 M
T4 construct: host or cells: HEK-293 cells

[5] = biological target: T5, H1 (h) (Homo sapiens, UniProt P35367); type: binding; conditions: 1.0E-06 M
T5 construct: host or cells: HEK-293 cells

[6] = biological target: T6, 5-HT3 (h) (Homo sapiens, UniProt P46098); experiment: biochemical
T6 sequence (P46098 24-478): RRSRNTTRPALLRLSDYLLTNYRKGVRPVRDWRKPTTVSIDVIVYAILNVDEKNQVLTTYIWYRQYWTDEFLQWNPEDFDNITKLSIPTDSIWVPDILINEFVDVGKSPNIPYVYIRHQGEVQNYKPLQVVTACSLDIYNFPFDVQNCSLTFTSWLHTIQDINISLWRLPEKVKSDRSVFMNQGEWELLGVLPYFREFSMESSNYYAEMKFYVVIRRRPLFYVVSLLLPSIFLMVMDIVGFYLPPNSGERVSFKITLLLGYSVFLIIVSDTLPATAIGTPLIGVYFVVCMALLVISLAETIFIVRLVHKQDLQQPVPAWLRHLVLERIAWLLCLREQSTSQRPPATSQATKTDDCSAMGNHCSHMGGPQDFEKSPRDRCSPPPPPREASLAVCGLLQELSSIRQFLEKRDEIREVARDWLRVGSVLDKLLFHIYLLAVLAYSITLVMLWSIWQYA

[7] = biological target: T7, 5-HT1A (h) (Homo sapiens, UniProt P08908); type: binding; conditions: 1.0E-06 M
T7 construct: host or cells: HEK-293 cells
T7 sequence (P08908 1-422): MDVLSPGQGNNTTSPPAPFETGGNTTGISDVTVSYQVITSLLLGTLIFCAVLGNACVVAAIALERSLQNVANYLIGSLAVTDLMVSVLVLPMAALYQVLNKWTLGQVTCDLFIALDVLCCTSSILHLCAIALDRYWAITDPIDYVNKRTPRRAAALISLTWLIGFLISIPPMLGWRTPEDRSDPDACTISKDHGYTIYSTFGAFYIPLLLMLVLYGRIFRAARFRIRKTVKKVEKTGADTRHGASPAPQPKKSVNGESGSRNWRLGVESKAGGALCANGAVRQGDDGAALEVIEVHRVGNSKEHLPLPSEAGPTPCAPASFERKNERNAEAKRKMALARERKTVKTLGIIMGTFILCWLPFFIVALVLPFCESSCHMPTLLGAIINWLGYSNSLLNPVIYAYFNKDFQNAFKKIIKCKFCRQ

[8] = biological target: T8, norepinephrine transporter (h) (Homo sapiens, UniProt P23975); type: binding
T8 construct: host or cells: CHO cells

[9] = biological target: PDE5 (h) (non-selective) (Homo sapiens, UniProt O76074); experiment: biochemical
[10] = biological target: T9, 5-HT transporter (h) (Homo sapiens, UniProt P31645); type: binding; conditions: 1 h
T9 construct: host or cells: CHO cells

[11] = biological target: T10, M5 (h) (Homo sapiens, UniProt P08912); type: binding
T10 construct: host or cells: CHO cells
T10 sequence (P08912 1-532): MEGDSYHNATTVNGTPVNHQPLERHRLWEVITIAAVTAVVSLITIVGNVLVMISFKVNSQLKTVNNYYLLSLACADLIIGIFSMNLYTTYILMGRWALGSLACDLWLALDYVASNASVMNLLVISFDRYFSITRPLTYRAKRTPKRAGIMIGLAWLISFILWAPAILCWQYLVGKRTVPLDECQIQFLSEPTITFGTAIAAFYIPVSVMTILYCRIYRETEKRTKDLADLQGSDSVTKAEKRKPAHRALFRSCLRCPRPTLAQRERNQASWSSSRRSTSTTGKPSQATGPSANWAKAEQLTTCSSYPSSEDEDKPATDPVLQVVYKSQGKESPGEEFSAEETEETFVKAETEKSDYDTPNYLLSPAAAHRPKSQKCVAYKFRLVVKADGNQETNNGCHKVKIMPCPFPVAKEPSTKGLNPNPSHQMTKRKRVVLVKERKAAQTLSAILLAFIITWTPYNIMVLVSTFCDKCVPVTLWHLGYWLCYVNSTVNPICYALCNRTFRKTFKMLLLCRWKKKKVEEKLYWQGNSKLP

[12] = biological target: D2S (h) (Homo sapiens, UniProt P14416); type: binding; parameters: host or cells: HEK-293 cells; conditions: 1.0E-06 M
[13] = biological target: T11, hTRPA1 (Homo sapiens, UniProt O75762); experiment: Ion channel selectivity patch clamp; type: cell-based
T11 construct: The cDNAs for various full-length ion channels were subcloned into pcDNA5/TO; expressed in transfected cells; host or cells: T-REx-293 (general cell paragraph)

[14] = biological target: T12, D1 (h) (Homo sapiens, UniProt P21728); type: binding
T12 construct: host or cells: CHO cells
T12 sequence (P21728 whole entry): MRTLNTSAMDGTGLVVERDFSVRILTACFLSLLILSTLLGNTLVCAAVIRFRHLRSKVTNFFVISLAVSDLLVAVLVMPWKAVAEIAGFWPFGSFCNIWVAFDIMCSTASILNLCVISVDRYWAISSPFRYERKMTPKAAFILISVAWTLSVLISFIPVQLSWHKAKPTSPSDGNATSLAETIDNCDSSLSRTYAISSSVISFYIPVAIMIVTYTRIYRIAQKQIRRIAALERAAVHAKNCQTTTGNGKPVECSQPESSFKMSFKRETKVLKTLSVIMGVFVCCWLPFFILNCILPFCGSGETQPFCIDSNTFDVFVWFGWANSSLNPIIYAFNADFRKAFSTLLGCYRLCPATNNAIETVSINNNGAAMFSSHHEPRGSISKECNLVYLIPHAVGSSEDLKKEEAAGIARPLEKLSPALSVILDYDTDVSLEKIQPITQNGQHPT

T2 sequence (P41143 whole entry): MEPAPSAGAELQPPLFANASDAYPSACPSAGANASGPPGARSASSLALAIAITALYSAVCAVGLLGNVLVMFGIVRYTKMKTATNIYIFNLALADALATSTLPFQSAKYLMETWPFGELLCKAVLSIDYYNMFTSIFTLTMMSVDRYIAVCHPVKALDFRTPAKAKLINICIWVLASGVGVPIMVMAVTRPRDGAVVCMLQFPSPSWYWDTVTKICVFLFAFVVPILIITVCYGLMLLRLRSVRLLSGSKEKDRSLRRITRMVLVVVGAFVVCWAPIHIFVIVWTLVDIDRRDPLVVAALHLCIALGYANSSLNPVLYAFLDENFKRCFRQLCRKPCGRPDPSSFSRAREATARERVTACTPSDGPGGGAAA
T8 sequence (P23975 whole entry): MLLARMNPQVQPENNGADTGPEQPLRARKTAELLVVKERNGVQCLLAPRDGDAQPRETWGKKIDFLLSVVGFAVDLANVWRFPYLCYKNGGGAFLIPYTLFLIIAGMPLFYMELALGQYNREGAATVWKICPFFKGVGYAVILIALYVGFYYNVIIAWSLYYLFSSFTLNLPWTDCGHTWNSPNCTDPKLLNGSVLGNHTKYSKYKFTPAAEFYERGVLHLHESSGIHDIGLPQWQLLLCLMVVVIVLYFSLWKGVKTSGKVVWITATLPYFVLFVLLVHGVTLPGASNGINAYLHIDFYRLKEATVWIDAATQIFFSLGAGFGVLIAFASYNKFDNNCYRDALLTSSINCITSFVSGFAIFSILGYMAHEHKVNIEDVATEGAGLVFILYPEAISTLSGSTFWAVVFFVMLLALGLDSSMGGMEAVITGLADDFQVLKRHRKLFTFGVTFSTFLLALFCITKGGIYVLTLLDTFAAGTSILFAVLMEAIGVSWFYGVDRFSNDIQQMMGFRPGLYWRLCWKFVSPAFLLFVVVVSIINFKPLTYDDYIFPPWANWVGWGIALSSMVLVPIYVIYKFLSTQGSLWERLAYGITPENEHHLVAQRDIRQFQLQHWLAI
Chain of D2S (h) (P14416 1-414 isoform P14416-2): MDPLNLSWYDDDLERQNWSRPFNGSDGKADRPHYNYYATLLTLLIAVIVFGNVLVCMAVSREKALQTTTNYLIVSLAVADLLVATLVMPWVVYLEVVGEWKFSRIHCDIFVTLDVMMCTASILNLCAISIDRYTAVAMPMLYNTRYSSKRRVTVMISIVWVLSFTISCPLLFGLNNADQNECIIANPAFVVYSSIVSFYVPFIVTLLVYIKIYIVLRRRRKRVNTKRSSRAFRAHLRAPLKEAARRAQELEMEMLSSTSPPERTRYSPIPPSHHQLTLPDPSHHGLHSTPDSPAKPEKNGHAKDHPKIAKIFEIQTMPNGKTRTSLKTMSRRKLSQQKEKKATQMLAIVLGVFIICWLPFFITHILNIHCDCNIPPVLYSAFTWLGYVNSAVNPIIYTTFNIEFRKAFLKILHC
T4 sequence (P28223 whole entry): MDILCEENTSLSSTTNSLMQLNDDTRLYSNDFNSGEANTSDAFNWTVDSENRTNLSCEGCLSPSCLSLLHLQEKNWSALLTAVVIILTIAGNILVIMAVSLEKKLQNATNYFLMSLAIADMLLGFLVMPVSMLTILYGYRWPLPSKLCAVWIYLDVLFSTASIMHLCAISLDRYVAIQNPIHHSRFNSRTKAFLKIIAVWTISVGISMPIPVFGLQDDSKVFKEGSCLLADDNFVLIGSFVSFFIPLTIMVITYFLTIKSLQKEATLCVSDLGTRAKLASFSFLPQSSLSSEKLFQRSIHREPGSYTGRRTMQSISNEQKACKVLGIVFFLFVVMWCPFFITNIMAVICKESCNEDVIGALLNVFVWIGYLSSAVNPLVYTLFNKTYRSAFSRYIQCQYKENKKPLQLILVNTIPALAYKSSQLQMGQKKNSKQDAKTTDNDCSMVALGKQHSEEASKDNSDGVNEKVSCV
T5 sequence (P35367 whole entry): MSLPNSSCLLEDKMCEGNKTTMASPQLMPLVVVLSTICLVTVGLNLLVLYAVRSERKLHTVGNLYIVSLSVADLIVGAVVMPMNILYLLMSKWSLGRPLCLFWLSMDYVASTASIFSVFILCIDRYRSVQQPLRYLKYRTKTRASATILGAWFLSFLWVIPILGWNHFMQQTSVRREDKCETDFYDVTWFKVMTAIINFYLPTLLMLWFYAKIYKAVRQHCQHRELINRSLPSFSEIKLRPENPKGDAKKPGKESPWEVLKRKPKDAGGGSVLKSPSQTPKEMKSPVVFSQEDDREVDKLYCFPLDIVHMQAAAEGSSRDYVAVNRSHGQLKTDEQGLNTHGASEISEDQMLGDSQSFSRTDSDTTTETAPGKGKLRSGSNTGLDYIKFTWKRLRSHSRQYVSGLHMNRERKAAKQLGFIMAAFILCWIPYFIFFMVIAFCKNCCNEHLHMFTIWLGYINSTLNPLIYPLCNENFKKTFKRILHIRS
T3 sequence (P22303 32-614): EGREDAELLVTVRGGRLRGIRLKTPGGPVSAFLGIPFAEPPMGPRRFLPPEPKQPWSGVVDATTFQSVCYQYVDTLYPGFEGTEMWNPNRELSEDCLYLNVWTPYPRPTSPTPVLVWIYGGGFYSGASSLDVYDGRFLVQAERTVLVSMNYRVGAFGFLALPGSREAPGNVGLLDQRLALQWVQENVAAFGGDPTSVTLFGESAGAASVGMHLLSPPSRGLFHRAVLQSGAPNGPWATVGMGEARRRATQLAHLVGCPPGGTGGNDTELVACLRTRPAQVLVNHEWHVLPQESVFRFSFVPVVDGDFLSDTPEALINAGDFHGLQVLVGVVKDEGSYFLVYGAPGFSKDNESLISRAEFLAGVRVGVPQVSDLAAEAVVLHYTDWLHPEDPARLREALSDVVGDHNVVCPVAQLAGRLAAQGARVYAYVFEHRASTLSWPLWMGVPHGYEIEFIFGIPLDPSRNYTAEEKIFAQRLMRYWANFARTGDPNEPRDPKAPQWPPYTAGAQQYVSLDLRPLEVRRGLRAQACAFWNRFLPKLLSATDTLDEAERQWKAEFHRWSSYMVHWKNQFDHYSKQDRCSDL
T9 sequence (P31645 whole entry): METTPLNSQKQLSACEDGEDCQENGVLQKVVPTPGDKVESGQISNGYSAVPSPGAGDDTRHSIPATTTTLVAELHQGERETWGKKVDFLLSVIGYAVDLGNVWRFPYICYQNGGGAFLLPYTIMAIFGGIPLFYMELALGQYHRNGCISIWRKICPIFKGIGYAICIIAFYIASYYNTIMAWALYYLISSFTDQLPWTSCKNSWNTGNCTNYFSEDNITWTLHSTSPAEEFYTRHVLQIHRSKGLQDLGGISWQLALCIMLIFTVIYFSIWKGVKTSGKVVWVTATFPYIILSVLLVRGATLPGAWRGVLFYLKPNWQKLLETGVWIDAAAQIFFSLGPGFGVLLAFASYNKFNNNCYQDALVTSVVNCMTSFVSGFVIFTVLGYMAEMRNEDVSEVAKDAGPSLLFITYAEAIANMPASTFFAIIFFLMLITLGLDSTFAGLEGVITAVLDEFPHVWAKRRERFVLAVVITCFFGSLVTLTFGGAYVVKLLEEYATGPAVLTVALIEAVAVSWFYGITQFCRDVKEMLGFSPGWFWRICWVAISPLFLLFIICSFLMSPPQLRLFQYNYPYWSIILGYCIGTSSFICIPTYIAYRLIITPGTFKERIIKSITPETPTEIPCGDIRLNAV

| SMILES | pIC50 [1] | inhibition at 1 µM ([2]; read-out: % Inhibition 1st) [%] | inhibition at 1 µM ([2]; read-out: % Inhibition 2nd) [%] | inhibition at 1 µM ([2]; read-out: % Inhibition Mean) [%] | inhibition at 1 µM ([3]; read-out: % Inhibition 1st) [%] | inhibition at 1 µM ([3]; read-out: % Inhibition 2nd) [%] | inhibition at 1 µM ([3]; read-out: % Inhibition Mean) [%] | inhibition at 1 µM ([4]; read-out: % Inhibition 1st) [%] | inhibition at 1 µM ([4]; read-out: % Inhibition 2nd) [%] | inhibition at 1 µM ([4]; read-out: % Inhibition Mean) [%] | inhibition at 1 µM ([5]; read-out: % Inhibition 1st) [%] | inhibition at 1 µM ([5]; read-out: % Inhibition 2nd) [%] | inhibition at 1 µM ([5]; read-out: % Inhibition Mean) [%] | inhibition at 1 µM ([6]; read-out: % Inhibition 1st) [%] | inhibition at 1 µM ([6]; read-out: % Inhibition 2nd) [%] | inhibition at 1 µM ([6]; read-out: % Inhibition Mean) [%] | inhibition at 1 µM ([7]; read-out: % Inhibition 1st) [%] | inhibition at 1 µM ([7]; read-out: % Inhibition 2nd) [%] | inhibition at 1 µM ([7]; read-out: % Inhibition Mean) [%] | inhibition at 1 µM ([8]; read-out: % Inhibition 1st) [%] | also measured |
| --- | --- | --- | --- | --- | --- | --- | --- | --- | --- | --- | --- | --- | --- | --- | --- | --- | --- | --- | --- | --- | --- |
| Cn1c(=O)n(CCCO)c(=O)c2c1nc(Oc1cccc(Cl)c1)n2Cc1ccc(Cl)cc1 [HC-070] | < 5.72 | 6.8 | 5.9 | 6.3 | 2.1 | -0.7 | 0.7 | -1.3 | 6.1 | 2.4 | -15.6 | -11.4 | -13.5 | 4.7 | 2.6 | 3.7 | 8.7 | -24.2 | -7.7 | -10.1 | inhibition at 1 µM ([8]; read-out: % Inhibition 2nd): -0.6%; inhibition at 1 µM ([8]; read-out: % Inhibition Mean): -5.4%; inhibition at 1 µM ([9]; read-out: % Inhibition 1st): 27.3%; inhibition at 1 µM ([9]; read-out: % Inhibition 2nd): 50.4%; inhibition at 1 µM ([9]; read-out: % Inhibition Mean): 38.9%; inhibition at 1 µM ([10]; read-out: % Inhibition 1st): -0.3%; inhibition at 1 µM ([10]; read-out: % Inhibition 2nd): 18.4%; inhibition at 1 µM ([10]; read-out: % Inhibition Mean): 9.1%; inhibition at 1 µM ([11]; read-out: % Inhibition 1st): -7.3%; inhibition at 1 µM ([11]; read-out: % Inhibition 2nd): 10.1%; inhibition at 1 µM ([11]; read-out: % Inhibition Mean): 1.4%; inhibition at 1 µM ([12]; read-out: % Inhibition 1st): -3%; inhibition at 1 µM ([12]; read-out: % Inhibition 2nd): 3.4%; inhibition at 1 µM ([12]; read-out: % Inhibition Mean): 0.2%; pIC50 ([13]; 2-10 µM AITC, read-out: IC50): < 5.72; inhibition at 1 µM ([14]; read-out: % Inhibition 1st): 3%; inhibition at 1 µM ([14]; read-out: % Inhibition 2nd): -4.8%; inhibition at 1 µM ([14]; read-out: % Inhibition Mean): -0.9% |
| Cn1c(=O)n(CCCO)c(=O)c2c1nc(Oc1cccc(OC(F)(F)F)c1)n2Cc1ccc(Cl)cc1 [HC-608] | < 5.79 | -10.8 | 3.1 | -3.9 | -5.9 | -3.5 | -4.7 | 1.8 | -14.3 | -6.2 | -8.1 | -0.9 | -4.5 | -4.1 | 9.5 | 2.7 | -0.2 | 14.8 | 7.3 | 4.8 | inhibition at 1 µM ([8]; read-out: % Inhibition 2nd): 18.1%; inhibition at 1 µM ([8]; read-out: % Inhibition Mean): 11.5%; inhibition at 1 µM ([9]; read-out: % Inhibition 1st): 54.6%; inhibition at 1 µM ([9]; read-out: % Inhibition 2nd): 59.4%; inhibition at 1 µM ([9]; read-out: % Inhibition Mean): 57%; inhibition at 1 µM ([10]; read-out: % Inhibition 1st): -6.2%; inhibition at 1 µM ([10]; read-out: % Inhibition 2nd): 4.6%; inhibition at 1 µM ([10]; read-out: % Inhibition Mean): -0.8%; inhibition at 1 µM ([11]; read-out: % Inhibition 1st): -15.6%; inhibition at 1 µM ([11]; read-out: % Inhibition 2nd): -12.8%; inhibition at 1 µM ([11]; read-out: % Inhibition Mean): -14.2%; inhibition at 1 µM ([12]; read-out: % Inhibition 1st): 4.6%; inhibition at 1 µM ([12]; read-out: % Inhibition 2nd): 0.2%; inhibition at 1 µM ([12]; read-out: % Inhibition Mean): 2.4%; pIC50 [13]: < 5.79; inhibition at 1 µM ([14]; read-out: % Inhibition 1st): 1.1%; inhibition at 1 µM ([14]; read-out: % Inhibition 2nd): 5%; inhibition at 1 µM ([14]; read-out: % Inhibition Mean): 3.1% |
